The values below come from US20080171783A1, “COMPOSITIONS AND METHODS FOR TREATING HYPERPROLIFERATIVE DISEASE” (Migenix Inc., priority 2006, published 2008).

The test system of series [1] is HS 578T. Description: NCI In Vitro Cell Line Screening (SRB). The series is classed as cell-based, human. As to conditions: Breast Cancer, 48 h; for GI50 / CC50: Homo sapiens; for CC50: read-out: LC50 (the source's name).
Series [2] relates to MOLT-4. Description: NCI In Vitro Cell Line Screening (SRB). As to conditions: MOLT-4, Leukemia, 48 h. The series is classed as cell-based, human.
Series [3] has as its system LOX IMVI. Description: NCI In Vitro Cell Line Screening (SRB). The series is classed as cell-based, human. As to conditions: Melanoma, 48 h; for GI50 / LC50: Homo sapiens.
The test system of series [4] is SF-268. In words: NCI In Vitro Cell Line Screening (SRB). The series is classed as cell-based, human. To be noted: SF-268, CNS Cancer, 48 h; for GI50 / LC50: Homo sapiens.
Series [5] concerns TK-10. Description: NCI In Vitro Cell Line Screening (SRB). The series is classed as cell-based, human. As to conditions: TK-10, Renal Cancer, 48 h; for GI50 / CC50: Homo sapiens; for CC50: read-out: LC50 (the source's name).
Series [6] has as its system DU-145. In words: NCI In Vitro Cell Line Screening (SRB). As to conditions: DU-145, Prostate Cancer, 48 h; for GI50 / CC50: Homo sapiens; for CC50: read-out: LC50 (the source's name). The series is classed as cell-based, human.
In series [7] the test system is SF-295. Description: NCI In Vitro Cell Line Screening (SRB). The series is classed as cell-based, human. As to conditions: SF-295, CNS Cancer, 48 h; for GI50 / CC50: Homo sapiens; for CC50: read-out: LC50 (the source's name).
The test system of series [8] is NCI-H226. In words: NCI In Vitro Cell Line Screening (SRB). The series is classed as cell-based, human. To be noted: NCI-H226, Non-Small Cell Lung Cancer, 48 h; for GI50 / LC50 (concentration killing 50% of cells): Homo sapiens.
Series [9] concerns NCI-H522. In words: NCI In Vitro Cell Line Screening (SRB). The series is classed as cell-based, human. To be noted: NCI-H522, Non-Small Cell Lung Cancer, 48 h.
Series [10] concerns M14. In words: NCI In Vitro Cell Line Screening (SRB). To be noted: M14, Melanoma, 48 h; for GI50 / CC50: Homo sapiens; for CC50: read-out: LC50 (the source's name). The series is classed as cell-based, human.
Series [11] has as its target T1, human polymerase gamma (Homo sapiens, UniProt P54098).
T1 construct: purchased Replizyme Ltd., Heslington, York, UK
T1 sequence (P54098 1-1239): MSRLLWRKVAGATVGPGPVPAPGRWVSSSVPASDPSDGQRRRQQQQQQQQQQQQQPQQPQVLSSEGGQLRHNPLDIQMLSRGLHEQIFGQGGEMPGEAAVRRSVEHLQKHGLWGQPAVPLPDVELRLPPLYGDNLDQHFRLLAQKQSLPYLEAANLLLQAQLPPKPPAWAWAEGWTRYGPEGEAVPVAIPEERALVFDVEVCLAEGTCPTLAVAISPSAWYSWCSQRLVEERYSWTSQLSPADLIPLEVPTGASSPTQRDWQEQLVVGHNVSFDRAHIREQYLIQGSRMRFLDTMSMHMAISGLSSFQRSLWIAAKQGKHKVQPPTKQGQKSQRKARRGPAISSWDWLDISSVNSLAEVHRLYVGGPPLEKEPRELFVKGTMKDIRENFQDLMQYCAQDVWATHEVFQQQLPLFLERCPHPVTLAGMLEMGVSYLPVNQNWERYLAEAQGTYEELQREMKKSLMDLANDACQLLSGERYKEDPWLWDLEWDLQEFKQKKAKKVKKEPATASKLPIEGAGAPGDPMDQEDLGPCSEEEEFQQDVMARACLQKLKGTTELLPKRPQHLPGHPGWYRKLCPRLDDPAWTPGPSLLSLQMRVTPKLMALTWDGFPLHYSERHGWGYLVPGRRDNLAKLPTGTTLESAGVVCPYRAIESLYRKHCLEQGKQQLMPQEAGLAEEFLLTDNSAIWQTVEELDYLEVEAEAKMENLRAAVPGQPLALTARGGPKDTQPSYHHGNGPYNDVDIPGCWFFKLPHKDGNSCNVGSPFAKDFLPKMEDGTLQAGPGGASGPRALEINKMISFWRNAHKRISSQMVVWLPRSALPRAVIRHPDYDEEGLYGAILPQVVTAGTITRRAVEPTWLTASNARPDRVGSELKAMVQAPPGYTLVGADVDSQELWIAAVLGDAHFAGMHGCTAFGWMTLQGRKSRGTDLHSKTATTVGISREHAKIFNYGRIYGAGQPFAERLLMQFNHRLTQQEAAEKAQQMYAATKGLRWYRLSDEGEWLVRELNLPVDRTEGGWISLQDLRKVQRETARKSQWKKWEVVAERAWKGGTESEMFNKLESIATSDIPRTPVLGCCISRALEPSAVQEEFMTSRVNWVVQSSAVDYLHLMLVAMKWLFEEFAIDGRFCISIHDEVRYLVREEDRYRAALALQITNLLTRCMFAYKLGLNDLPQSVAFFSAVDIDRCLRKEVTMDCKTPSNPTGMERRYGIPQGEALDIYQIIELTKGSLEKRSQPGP
In words: Homotemplate enzymatic assay, polymerase gamma. The series is classed as biochemical. As to conditions: four concentrations, homotemplate format. As to the method:
To test for selectivity, an enzymatic assay of activity in human polymerase alpha and human polymerase gamma was performed using a homotemplate assay format (Replizyme Ltd., Heslington, York, UK). The IC50 was measured by testing four different concentrations of a selected compound as compared to an untreated control.

The nature of series [12]: Cytotoxicity Huh-7 cells (MTS/PMS). The series is classed as cell-based. To be noted: human, 3-day incubation. The method, then:
Cytotoxicity of compounds for use in treating hyperproliferative diseases or disorders was tested in Huh-7 cells using tetrazolium salt MTS combined with the electron acceptor PMS in a 96-well format. Six doses of each compound was tested, starting at about 1.2 μM to 0.4 μM serially diluted in a final 1% DMSO solution in DMEM/F12 media. Terfenadine was used as a positive control. Cells were seeded at 2.5×10^5 cells/mL in each well of the 96-well plates in a final volume of 0.1 mL, and then incubated at 37° C. in the presence of 5% CO2 overnight. Compounds (in media) were added the following day and the treated cells were incubated another 3-days at 37° C. in the presence of 5% CO2. After the 3-day incubation, 20 μL of MTS/PMS (3-(4,5-dimethylthiazol-2-yl)-5-(3-carboxymethoxy-phenyl)-2-(4-sulfophenyl)-2H-tetrazolium) was added to each well. After about a one to four hour incubation of MTS/PMS at 37° C. and 5% CO2—that is, until an OD490 absorbance of ≧0.6 for the wells containing cells with media only, the level of cytotoxicity at each concentration was calculated. […] Dose response results from the cytotoxicity assay (CC50) are provided in Table 4 in comparison with IC50 data (from Table 2)

In general, TGI refers to the concentration giving total growth inhibition. High values mean less potent growth arrest, low ones more potent growth arrest. For orientation: GI50 means the concentration giving 50% growth inhibition. As usually defined, the LC50 is the concentration that kills 50% of the test population. A lower LC50 goes with a more lethal substance. On to `CC(C)(C)c1ccc(NC(=O)[C@H](CCCCN)NC(=O)OCC2c3ccccc3-c3ccccc32)cc1` [Compound 105, (S)-[5-AMINO-1-(4-TERT-BUTYL-PHENYLCARBAMOYL)-PENTYL]-CARBAMIC ACID 9H-FLUOREN-9-YLMETHYL ESTER], for which the TGI in series [1] was 16.7 µM; in [2], 3.42 µM; in series [3], 3.41 µM; in [4], 31.5 µM; in series [5], 34.1 µM; in series [6], 31.2 µM. The TGI in series [7] was 19.0 µM; in series [8], 44.4 µM; in series [9], 4.43 µM; in series [10], 3.40 µM. Besides, the GI50 in series [1] came out at 2.93 µM; in series [2] (Homo sapiens), 1.66 µM; in [3], 1.81 µM; in series [4] it was 17 µM; in series [5], 14.1 µM; in [6] it was 15.8 µM. The GI50 in [7] came out at 3.74 µM; in series [8] it was 22.2 µM; in series [9] (Homo sapiens), 2.1 µM; in series [10], 1.77 µM. Also, the CC50 worked out at 48.7 µM in series [1]; 82.9 µM in series [5]; 61.6 µM in series [6]; 65.3 µM in series [7]; 6.55 µM in [10]. Besides, the LC50 in series [3] was 6.42 µM; in series [4] it was 58.3 µM. In addition, in series [8], the LC50 (concentration killing 50% of cells) amounted to 89.2 µM.
As usually defined, the IC50 is the point on the concentration scale where inhibition reaches its midpoint. Low readings indicate greater potency, high ones weaker potency. Take `Cc1ccc(NC(=O)[C@@H](CCCCN)NC(=O)Nc2ccc3c(c2)Cc2ccccc2-3)cc1` [Compound 173, (R)-6-AMINO-2-[3-(9H-FLUOREN-2-YL)-UREIDO]-HEXANOIC ACID P-TOLYLAMIDE]: the TGI in series [1] was 4.77 µM; in [2], 4.43 µM; in series [3], 2.70 µM; in series [4], 21.8 µM; in series [5] it was 17.6 µM; in [6], 20.0 µM. The TGI stood at 2.07 µM in [7], 9.56 µM in [8], 23.5 µM in series [9] and 11.4 µM in series [10]. Moreover, the GI50 in series [1] was found to be 1.64 µM; in series [2] (Homo sapiens) it was 1.93 µM; in series [3], 1.4 µM; in [4], 7.37 µM; in series [5], 3.59 µM; in [6] it was 6.94 µM. Also, the GI50 turned out to be 0.341 µM in series [7], 1.62 µM in series [8], 4.15 µM in series [9] (Homo sapiens) and 3.43 µM in series [10]. The CC50 in series [1] is 32.7 µM; in [2] (Homo sapiens, read-out: LC50 (the source's name)) it was 17.5 µM; in [5] it was 55.4 µM; in series [6], 46.3 µM; in series [7], 5.17 µM; in [10], more than 100 µM. Moreover, the LC50 in [3] was 5.2 µM; in series [4], 51 µM; in series [9] (Homo sapiens), more than 100 µM. In addition, half-maximal inhibition in [11] (IC50) required 16 µM. In addition, in [8], the LC50 (concentration killing 50% of cells) stood at 45.6 µM.
On to `Cc1ccc(NC(=O)[C@H](CCCCN)NC(=O)Nc2ccc(OCc3ccccc3)cc2)cc1` [Compound 2, (S)-6-AMINO-2-[3-(4-BENZYLOXY-PHENYL)-UREIDO]-HEXANOIC ACID P-TOLYLAMIDE], for which the midpoint of inhibition in [11], the IC50, lay at 27 µM. The compound further showed a CC50 at 3 days in series [12] of 22.2 µM.
`Cc1cc2cc(NC(=O)[C@H](CCCNC(=O)CN)NC(=O)Nc3ccc4c(c3)Cc3ccccc3-4)ccc2[nH]1` [Compound 297, (S)-5-(2-AMINO-ACETYLAMINO)-2-[3-(9H-FLUOREN-2-YL)-UREIDO]-PENTANOIC ACID (2-METHYL-1H-INDOL-5-YL)-AMIDE] showed an IC50 in series [11] of 13 µM. The compound further had a CC50 at 3 days in series [12] of 9.9 µM.
In [11], `COC(=O)c1ccc(COc2ccc(NC(=O)N[C@@H](CCCCN)C(=O)Nc3ccc(C)cc3)cc2)cc1` [Compound 199, (S)-4-{4-[3-(5-AMINO-1-P-TOLYLCARBAMOYL-PENTYL)-UREIDO]-PHENOXYMETHYL}-BENZOIC ACID METHYL ESTER] registered an IC50 of 32 µM. In addition, in series [12], the CC50 at 3 days was 53 µM.
